How the values were obtained:
[1] = test system: blood specimen involving acute myeloid leukemia (AML); conditions: live cells from blood specimen, apoptosis by OD at 600 nm
Protocol: In the MiCK assay cancer cells from a patient are placed in a suspension of a given concentration of single cells or small cell clusters and allowed to adjust to conditions in multiple wells of a microtiter plate. […] The optical density of each well is then measured periodically, typically every few minutes, for a period of typically a few days. As a cell undergoes apoptosis-related blebbing, its optical density increases in a nearly linear fashion.
The assay may proceed by selecting an anti-cancer drug candidate and selecting at least one known cancer cell type on which to test the drug. The cancer cells may be suspended as a single-cell suspension in culture medium, such as RPMI. As used herein, a “single cell suspension” is a suspension of one or more cells in a liquid in which the cells are separated as individuals or in small clumps of 50 cells or fewer. […]
Suspended cells may be tested by placing samples in wells of a spectrophotometric plate. The cells may be suspended at any concentration such that during the spectrophotometric measurements of OD, the beam of the plate reader normally passes through the layer of cells. […]
The drug candidate and any control drugs or other control samples may be added to the wells after the adjustment period. […] Although many drug candidates may be water-soluble, drug candidates that are not readily soluble in water may also be tested.

[2] = test system: solid tumor specimen involving lung cancer metastases; test: MiCK assay of apoptosis on patient solid tumor specimen (Appendix A report); format: cell-based; conditions: live cells from solid tumor specimen, apoptosis by OD at 600 nm
Excerpt: Such candidates may be mixed with any appropriate carrier.
Spectrophotometric data may be converted to kinetic units.
Kinetic units may be determined as follows:
KU=(VmaxDrug Treated−Vmaxcontrol)×60X y/(ODcell−ODblank).
Appendix A is a report based on tests conducted on a solid tumor specimen involving lung cancer metastases.

Row | Structure (SMILES) | maximum kinetic units (KU) [1] | maximum kinetic units (KU) [2]
1 | O=P1(N(CCCl)CCCl)NCCCO1 (centres unmarked) [Cytoxan, cyclophosphamide] | 7.4 KU | –
2 | CC(=O)O[C@H]1C(=O)[C@@]2(C)[C@H]([C@H](OC(=O)c3ccccc3)[C@]3(O)C[C@H](OC(=O)[C@H](O)[C@@H](NC(=O)c4ccccc4)c4ccccc4)C(C)=C1C3(C)C)[C@]1(OC(C)=O)CO[C@@H]1C[C@@H]2O [paclitaxel] | – | 7.6 KU

Reference: US20250198988A1 (priority 2012, published 2025)
